Results taken from patent publication US9951060B2, “2-acylaminothiazole derivative or salt thereof” (ASTELLAS PHARMA INC., priority 2014, dated 2018).
Structures can show the parent of a compound that is named as a salt.

Experiments:
[1] = target: human muscarinic M3 receptor (Homo sapiens, UniProt P20309)
rat isolated bladder = assay: Test Example 3: effect on electrical field stimulation-induced contraction in rat isolated bladder; settings: 10 μM test substance; AUC of contraction, value before treatment = 100%; SD female rat bladder
Protocol: Test Example 3: Effect on Electrical Field Stimulation-Induced Contraction in Rat Isolated Bladder
As an effect on the nerve stimulation-dependent bladder contraction in in vitro, the effect of the Example compounds of the present invention in the electrical field stimulation-induced contraction of the rat isolated bladder was measured by the following method. That is, a bladder specimen having a width of about 2 mm and a length of about 10 mm in the longitudinal direction from the bladder isolated from a Sprague-Dawley (SD) female rat (Japan SLC, Inc.) was prepared. The prepared bladder specimen was suspended in an organ bath filled with 10 mL of a Krebs-Henseleite solution. The Krebs-Henseleite solution was aerated at 95% 02 and 5% CO2, and kept at 37° C. After carrying out stabilization at an initial tension of 1 g, the contraction was caused twice with 60 mM KCl. After stabilization of the specimen with a Krebs-Henseleite solution, the contraction was caused by carrying out electrical field stimulation at 20 V with an electrical stimulation device (Nihon Kohden) (a stimulation frequency of 8 Hz, a pulse width of 0.3 msec, and a stimulation time of 10 seconds). By repeating the transmural electrical stimulation at an interval of 2 minutes, a voltage was adjusted to obtain a contraction height of approximately 50% of the contractile response at 20 V. After the contraction by electrical field stimulation had been stabilized, 10 μL of the test substances dissolved in 100% dimethyl sulfoxide in advance (final concentrations of 3 μM, 10 μM, and 30 μM) was added thereto. The test substances were cumulatively administered at the following concentrations after the low-concentration contractile response had been stabilized. The response was taken into a personal computer through a PowerLab (registered trademark) (AD Instruments, Inc.), and analyzed by LabChart (registered trademark) (AD Instruments, Inc.). When the area under the response (area under curve, AUC) in each contraction response was calculated and the value before treatment with the test substance was taken as 100%, the enhancement rate (% of pre) of the isolated bladder contractions after treatment with the test substance was calculated.

[2] = target: T1, human c-Mpl-introduced Ba/F3 cell (Homo sapiens, UniProt P40238); assay: Test Example 2: human c-Mpl-introduced Ba/F3 cell proliferative activity; assay type: cell-based; settings: concentration exhibiting 30% proliferation; 100% = positive control (Example 315 of Patent Document 1) at 1 μM
T1 construct: expressed in transfected cells
T1 sequence (P40238 26-635): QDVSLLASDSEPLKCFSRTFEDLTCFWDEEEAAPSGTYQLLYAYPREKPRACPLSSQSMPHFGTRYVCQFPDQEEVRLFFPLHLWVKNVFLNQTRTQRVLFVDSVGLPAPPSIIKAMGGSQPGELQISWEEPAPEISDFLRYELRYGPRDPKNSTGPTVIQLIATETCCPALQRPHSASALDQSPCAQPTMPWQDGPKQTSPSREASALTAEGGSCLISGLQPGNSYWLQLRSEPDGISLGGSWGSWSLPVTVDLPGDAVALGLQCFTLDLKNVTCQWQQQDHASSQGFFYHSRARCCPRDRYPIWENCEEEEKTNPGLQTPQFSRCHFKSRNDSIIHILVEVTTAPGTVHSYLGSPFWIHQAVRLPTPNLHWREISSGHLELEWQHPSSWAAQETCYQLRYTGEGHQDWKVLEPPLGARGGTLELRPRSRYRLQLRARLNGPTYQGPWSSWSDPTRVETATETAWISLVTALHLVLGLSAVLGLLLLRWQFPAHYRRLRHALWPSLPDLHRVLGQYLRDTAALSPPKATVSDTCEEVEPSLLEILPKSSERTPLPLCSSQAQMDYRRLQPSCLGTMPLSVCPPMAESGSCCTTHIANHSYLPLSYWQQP
Protocol: Test Example 2: Evaluation of Human c-Mpl-Introduced Ba/F3 Cell Proliferative Activity
The human c-Mpl-introduced Ba/F3 cell proliferation action was measured by the following method.
As a positive control, 1-(5-{[4-(4-chlorothiophen-2-yl)-5-{[(2R)-2-methylpyrrolidin-1-yl]methyl}-1,3-thiazol-2-yl]carbamoyl}-3-fluoropyridin-2-yl)piperidine-4-carboxylic acid hydrochloride disclosed as Example 315 in Patent Document 1, represented by the formula (A1) above, was used. Further, it is known that the compound has a good human c-Mpl-introduced Ba/F3 cell proliferative activity as disclosed in Table 1 in Patent Document 1.
a) Construction of Vector Expressing Human c-Mpl Receptor
A human c-Mpl receptor gene (GenBank Accession No.: M90102.1) was transfected into an expression vector pEF-BOS (Nucleic Acids Research, 18: pp 5322 (1990)).
b) Construction of Cell Stably Expressing Human c-Mpl Receptor
A vector expressing a human c-Mpl receptor was introduced into a Ba/F3 cell (RIKEN BRC: RCB0805). For the introduction, an electroporation method was used. pEF-BOS-c-mpl (10 μg), pSV2bsr (1 μg, Kaken Pharmaceutical Co., Ltd.) and 1×10^7 of Ba/F3 cells were put into cuvettes with a gap width of 0.4 cm and electroporated under a condition of 1.5 kV (25 μF) in a Gene Pulser (registered trademark) (BioRad). The cells were incubated in an RPMI-1640 medium supplemented with a 0.5% WEHI conditioned medium (BD Biosciences) and 10% fetal bovine serum for 3 days, and thereafter, and the cells were incubated for 30 days in an RPMI-1640 medium, to which 10 μg/mL blasticidin had been further added, thereby acquiring a drug-resistant clone.
c) Measurement of Cell Proliferative Activity
The cells obtained in b) above were dispensed into an RPMI-1640 medium supplemented with a 0.5% WEHI conditioned medium and 10% fetal bovine serum, and used. The day before the experiment, the test substances (final concentration of 100 nM to 10 μM) which had been dissolved in a medium for assay (an RPMI-1640 medium supplemented with 10% fetal bovine serum) were added to a 384-well plate (Model No. 781185, Greiner bio-one). The cells after the medium had been replaced with the medium for assay were dispensed to a 384-well plate to which the test substance had been added, to 1×10^4 cells/well, and incubated overnight at 37° C. and 5% CO2. On the experiment day, a solution of a Cell counting kit (Dojindo Laboratories) was added to each well of the 384-well plate, and the cells were incubated for about 5 hours at 37° C. and 5% CO2. Thereafter, the absorbance (an absorbance wavelength of 450 nm) of each well was measured using Safire^2 (registered trademark) (TECAN), and used as an index for the number of cells. Further, as a negative control, a well to which the test substances had not been added was prepared.
By taking the absorbance of the well to which the test substance had been not added as 0% and taking the absorbance in a case where the positive control had been added to a final concentration of 1 μM as 100%, a cell proliferation rate (%) was calculated from the absorbance of the well to which the test substance had been added.

human muscarinic M3 receptor, sequence (P20309 whole entry): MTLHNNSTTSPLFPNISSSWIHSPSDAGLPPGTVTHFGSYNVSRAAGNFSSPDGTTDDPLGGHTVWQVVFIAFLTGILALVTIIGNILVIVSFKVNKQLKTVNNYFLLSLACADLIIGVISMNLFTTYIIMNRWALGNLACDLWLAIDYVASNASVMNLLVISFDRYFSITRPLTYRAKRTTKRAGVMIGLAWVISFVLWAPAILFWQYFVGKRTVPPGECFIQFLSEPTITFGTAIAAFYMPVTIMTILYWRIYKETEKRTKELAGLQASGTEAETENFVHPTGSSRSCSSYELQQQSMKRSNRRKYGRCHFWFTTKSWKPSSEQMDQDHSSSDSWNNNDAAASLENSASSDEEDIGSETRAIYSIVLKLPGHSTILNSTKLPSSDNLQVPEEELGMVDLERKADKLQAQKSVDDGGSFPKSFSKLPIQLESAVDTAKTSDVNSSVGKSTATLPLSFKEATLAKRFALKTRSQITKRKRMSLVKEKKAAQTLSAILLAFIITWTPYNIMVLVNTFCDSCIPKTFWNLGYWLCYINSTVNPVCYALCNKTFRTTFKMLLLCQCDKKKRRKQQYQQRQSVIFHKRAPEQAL

| Structure (SMILES) | muscarinic M3 receptor-positive allosteric modulator activity, 1 μM (-fold shift) [1] | muscarinic M3 receptor-positive allosteric modulator activity, 10 μM (-fold shift) [1] | Enhancement rate (% of pre) of isolated bladder contractions (rat isolated bladder) | human c-Mpl-introduced Ba/F3 cell proliferative activity EC30 [2] [µM] |
| --- | --- | --- | --- | --- |
| C[C@@H]1CCCN1Cc1sc(NC(=O)c2cnc(N3CCN(CC(=O)O)CC3)cn2)nc1-c1cc(Cl)cc(C(F)(F)F)c1 [Example 13] | 43 -fold shift | 326 -fold shift | 126 % of pre | >10 |
| C[C@@H]1CCCN1Cc1sc(NC(=O)c2cnc(N3CCN(CCC(=O)O)[C@@H](C)C3)cn2)nc1-c1cc(C(F)(F)F)cs1 [Example 95] | 91 -fold shift | 233 -fold shift | 150 % of pre | 3 |
| COc1c(Cl)cc(-c2nc(NC(=O)c3cnc(N4CCN(CCC(=O)O)CC4)cn3)sc2CN2CCC[C@H]2C)cc1Cl [Example 43] | 76 -fold shift | 224 -fold shift | 179 % of pre | >10 |
| COc1ccc(-c2nc(NC(=O)c3cnc(N4CCN(CCC(=O)O)[C@@H](C)C4)cn3)sc2CN2CCC[C@H]2C)cc1C(F)(F)F [Example 10] | 21 -fold shift | 87 -fold shift | 161 % of pre | >10 |
| C[C@@H]1CCCN1Cc1sc(NC(=O)c2cnc(N3CCN(CC(=O)O)CC3)cn2)nc1-c1cc(Cl)cs1 [Example 51] | 102 -fold shift | 287 -fold shift | 151 % of pre | 2.6 |
| CCC[C@@H]1CCCN1Cc1sc(NC(=O)c2cnc(N3CCN(CCC(=O)[O-])CC3)cn2)nc1-c1cccc(C(F)(F)F)c1.[Na+] [Example 124] | – | – | 132 % of pre | >10 |
| COc1c(F)cc(-c2nc(NC(=O)c3cnc(N4CCN(CCC(=O)O)CC4)cn3)sc2CN2CCC[C@H]2C)cc1C(F)(F)F [Example 72] | 31 -fold shift | 152 -fold shift | 157 % of pre | >10 |
| CC(C(=O)O)N1CCN(c2cnc(C(=O)Nc3nc(-c4cc(F)cc(C(F)(F)F)c4)c(CN4CCC[C@H]4C)s3)cn2)CC1 (some centres unmarked) [Example 64] | 23 -fold shift | 128 -fold shift | 162 % of pre | >10 |
| C[C@@H]1CCCN1Cc1sc(NC(=O)c2cnc(N3CCN(CCC(=O)O)[C@@H](C)C3)cn2)nc1-c1cc(Cl)cs1 [Example 142] | 52 -fold shift | 160 -fold shift | 196 % of pre | 4.7 |
| C[C@@H]1CCCN1Cc1sc(NC(=O)c2cnc(N3CCN(CCC(=O)O)C[C@H]3C)cn2)nc1-c1cc(C(F)(F)F)cs1 [Example 3, 3-[(3R)-3-methyl-4-{5-[(5-{[(2R)-2-methylpyrrolidin-1-yl]methyl}-4-[4-(trifluoromethyl)thiophen-2-yl]-1,3-thiazol-2-yl)carbamoyl]pyrazin-2-yl}piperazin-1-yl]propanoic acid dihydrochloride] | 101 -fold shift | 253 -fold shift | 152 % of pre | 0.78 |
| CCN(CC)Cc1sc(NC(=O)c2cnc(N3CCN(CCC(=O)O)CC3)cn2)nc1-c1cc(F)cc(C(F)(F)F)c1 [Example 109] | 30 -fold shift | 191 -fold shift | 183 % of pre | >10 |
| C[C@@H]1CCCN1Cc1sc(NC(=O)c2cnc(N3CCN(CCC(=O)[O-])CC3)cn2)nc1-c1cc(C#N)cc(C(F)(F)F)c1.[Na+] [Example 34] | – | – | 137 % of pre | >10 |
